Values of other authors, collected in paper PMC10339703 (Clinical and Translational Science, 2023).

How the values were obtained:
patients with IPF [1] = conditions: commonly reported adverse effects; cited from earlier work
patients with IPF [2] = conditions: most common side effects; cited from earlier work

| SMILES | diarrhea, incidence (patients with IPF [1]) | elevation in liver function tests, incidence (patients with IPF [1]) | rash, incidence (patients with IPF [2]) |
| --- | --- | --- | --- |
| COC(=O)c1ccc2c(c1)NC(=O)/C2=C(\Nc1ccc(N(C)C(=O)CN2CCN(C)CC2)cc1)c1ccccc1 [Nintedanib] | 62% | 14% |  |
| Cc1ccc(=O)n(-c2ccccc2)c1 [Pirfenidone] |  |  | 30% |
